Data as given in US9884063B2, “Amido-substituted azole compounds” (Bayer Pharma Aktiengesellschaft, priority 2014, dated 2018).

Experiments:
TNKS2 = target: T1, TNKS2 (Homo sapiens, UniProt Q9H2K2); assay: TNKS2 Assay 1 (TNKS2 Histone Ribosylation Assay Kit, biotin-labeled NAD+); format: biochemical; conditions: chemiluminescent readout, 384 well
T1 sequence (Q9H2K2 1-1166): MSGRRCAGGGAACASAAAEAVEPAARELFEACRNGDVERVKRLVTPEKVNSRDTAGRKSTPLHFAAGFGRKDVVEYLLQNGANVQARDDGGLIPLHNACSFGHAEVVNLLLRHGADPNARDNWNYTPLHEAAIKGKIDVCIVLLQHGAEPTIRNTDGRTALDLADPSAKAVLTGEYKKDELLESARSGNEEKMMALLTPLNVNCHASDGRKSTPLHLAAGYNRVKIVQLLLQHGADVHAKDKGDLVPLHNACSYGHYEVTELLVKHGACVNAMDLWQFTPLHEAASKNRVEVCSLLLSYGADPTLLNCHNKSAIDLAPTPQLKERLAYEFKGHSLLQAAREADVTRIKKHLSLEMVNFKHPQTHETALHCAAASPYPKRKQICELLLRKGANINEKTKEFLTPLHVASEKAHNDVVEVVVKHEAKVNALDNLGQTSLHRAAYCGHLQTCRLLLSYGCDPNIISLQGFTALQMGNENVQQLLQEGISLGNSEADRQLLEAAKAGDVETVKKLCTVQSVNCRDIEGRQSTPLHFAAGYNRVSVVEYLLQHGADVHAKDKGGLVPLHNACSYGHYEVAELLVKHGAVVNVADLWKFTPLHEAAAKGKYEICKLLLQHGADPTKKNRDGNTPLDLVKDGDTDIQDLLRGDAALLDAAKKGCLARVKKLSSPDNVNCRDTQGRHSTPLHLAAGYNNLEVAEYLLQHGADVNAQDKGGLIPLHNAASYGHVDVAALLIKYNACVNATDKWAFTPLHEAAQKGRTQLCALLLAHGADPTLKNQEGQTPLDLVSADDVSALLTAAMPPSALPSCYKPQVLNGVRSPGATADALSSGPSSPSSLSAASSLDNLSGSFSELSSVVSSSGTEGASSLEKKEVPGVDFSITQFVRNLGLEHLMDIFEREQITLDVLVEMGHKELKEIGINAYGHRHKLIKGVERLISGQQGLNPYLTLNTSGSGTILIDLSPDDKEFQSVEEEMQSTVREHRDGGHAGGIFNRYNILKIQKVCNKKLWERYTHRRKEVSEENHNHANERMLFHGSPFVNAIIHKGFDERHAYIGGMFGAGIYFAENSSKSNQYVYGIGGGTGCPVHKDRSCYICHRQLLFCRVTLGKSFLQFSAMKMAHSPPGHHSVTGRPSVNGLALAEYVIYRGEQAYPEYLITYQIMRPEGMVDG
Description: The potency of the compounds according to the invention was assessed applying an in vitro inhibition assay. The TNKS2 catalyzed NAD^+-dependent ribosylation of a suitable protein substrate was detected using a commercially available biotin/streptavidin binding based assay format [TNKS2 Histone Ribosylation Assay Kit (Biotin-labeled NAD+), Catalog #80572; BPS Bioscience, San Diego, USA]. Here, the incorporation of a biotin-labeled NAD+ during the TNKS2 catalyzed ribosylation reaction was detected with a streptavidin-HRP coupled chemi-luminescent readout. The intensity of the readout signal is proportional to the incorporated NAD^+. Inhibition of TNKS2 leads to a decreased incorporation of NAD^+ and consequently to a lower readout signal intensity. The concentration of a test compound which inhibits the enzyme activity by 50% (corresponds to half of the normed readout signal intensity) is reported as IC50.
The assay was conducted in a 384 well MTP format according to the manufacturer's protocol [bpsbioscience.com/poly-adp-ribose-polymerase/assay-kit/tnks2-histone-ribosylation-assay-kit-biotin-labeled-nad-80572 referencing: Brown, J. A., Marala, R. B. J. Pharmacol. Toxicol. Methods 2002 47:137-41]. and using a BMG Pherastar MTP reader [BMG-Labtech, Offenburg, Germany].

[1] = test system: HEK293 FOP control reporter cell line; assay: HEK293 FOP Assay (FOP control vector luciferase reporter); format: cell-based; conditions: Homo sapiens
How it was run: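 Compound series 50 μM to 15 nM, 3.16-fold steps, were diluted in CAFTY buffer (pH 7.4, 2 mM Ca2+, 0.01% BSA) and tested alongside the TOP reporter line. Human Wnt-3a was added at 2500–5 ng/ml in two-fold steps. The control HEK293 line stably holds an FOP vector whose TCF elements are randomized and non-functional.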

[2] = HEK293 FOP control reporter cell line, 16 hours incubation, compound dilution series 50 μM to 15 nM
[3] = HEK293 FOP control reporter cells, 16 hours, luciferase, dilution series from 50 μM

Row | SMILES | IC50 (TNKS2; Table 2) | IC50 (TNKS2; first table) | IC50 [1, 2] | IC50 [1, 3]
1 | CNC(=O)c1nc[nH]c1C(=O)Nc1ccc(NC(=O)c2cccc(Cl)c2Cl)cc1 [Example 1, N^5-{4-[(2,3-dichlorobenzoyl)amino]phenyl}-N^4-methyl-1H-imidazole-4,5-dicarboxamide] | 20 nM | 20 nM | 24000 nM | 25000 nM
2 | CNC(=O)c1nc[nH]c1C(=O)Nc1ccc(NC(=O)c2ccc(N3CCCC3)cc2F)cc1 [Example 3, N^5-(4-{[2-fluoro-4-(pyrrolidin-1-yl)benzoyl]amino}phenyl)-N^4-methyl-1H-imidazole-4,5-dicarboxamide] | 30000 nM |  |  | ≥ 50000 nM
3 | CNC(=O)c1nc[nH]c1C(=O)Nc1ccc(NC(=O)c2ccc(N(C)C)cc2Cl)cc1 [Example 4, N^5-(4-{[2-chloro-4-(dimethylamino)benzoyl]amino}phenyl)-N^4-methyl-1H-imidazole-4,5-dicarboxamide] | 90 nM | 90 nM | 42000 nM | 42000 nM
4 | CNC(=O)c1nc[nH]c1C(=O)Nc1ccc(NC(=O)c2ccc(F)cc2Cl)c(C)c1 [Example 5, N^5-{4-[(2-chloro-4-fluorobenzoyl)amino]-3-methylphenyl}-N^4-methyl-1H-imidazole-4,5-dicarboxamide] | 470 nM | 470 nM | 11000 nM | 11000 nM
5 | CNC(=O)c1nc[nH]c1C(=O)Nc1ccc(NC(=O)c2ccncc2Cl)cc1 [Example 6, N^5-{4-[(3-chloroisonicotinoyl)amino]phenyl}-N^4-methyl-1H-imidazole-4,5-dicarboxamide] | 50 nM | 50 nM |  | ≥ 50000 nM
6 | CCC(C)NC(=O)c1ncoc1C(=O)Nc1ccc(NC(=O)c2ccc(F)cc2Cl)cc1 (stereo not drawn) [Example 7, N^4-sec-butyl-N^5-{4-[(2-chloro-4-fluorobenzoyl)amino]phenyl}-1,3-oxazole-4,5-dicarboxamide] | 19000 nM | 19100 nM | 45000 nM | 45000 nM
7 | CC(NC(=O)c1ncoc1C(=O)Nc1ccc(NC(=O)c2ccc(F)cc2Cl)cc1)c1ccccc1 (stereo not drawn) [Example 8, N^5-{4-[(2-chloro-4-fluorobenzoyl)amino]phenyl}-N^4-(1-phenylethyl)-1,3-oxazole-4,5-dicarboxamide] | 7000 nM | 7000 nM |  | ≥ 50000 nM
8 | CNC(=O)c1nc[nH]c1C(=O)Nc1ccc(NC(=O)c2ccc(Cl)cc2Cl)cc1 [Example 9, N^5-{4-[(2,4-dichlorobenzoyl)amino]phenyl}-N^4-methyl-1H-imidazole-4,5-dicarboxamide] | 30 nM | 20 nM | 31500 nM | 40000 nM
9 | CC(C)NC(=O)c1nc[nH]c1C(=O)Nc1ccc(NC(=O)c2ccc(F)cc2Cl)cc1 [Example 10, N^5-{4-[(2-chloro-4-fluorobenzoyl)amino]phenyl}-N^4-isopropyl-1H-imidazole-4,5-dicarboxamide] | 230 nM | 230 nM | 46000 nM | ≥ 50000 nM
10 | CNC(=O)c1ncoc1C(=O)Nc1ccc(NC(=O)c2ccc(F)cc2Cl)cc1 [Example 11, N^5-{4-[(2-chloro-4-fluorobenzoyl)amino]phenyl}-N^4-methyl-1,3-oxazole-4,5-dicarboxamide] | 90 nM | 120 nM |  | ≥ 50000 nM
11 | CNC(=O)c1nc[nH]c1C(=O)Nc1ccc(NC(=O)c2ccc(F)cc2Cl)cc1 [Example 12, N^5-{4-[(2-chloro-4-fluorobenzoyl)amino]phenyl}-N^4-methyl-1H-imidazole-4,5-dicarboxamide] | 20 nM | 20 nM |  | ≥ 50000 nM
12 | COC(=O)c1ncoc1C(=O)Nc1ccc(NC(=O)c2ccc(F)cc2Cl)cc1 [Example 14, Methyl 5-({4-[(2-chloro-4-fluorobenzoyl)amino]phenyl}carbamoyl)-1,3-oxazole-4-carboxylate] | 300 nM | 300 nM |  | ≥ 50000 nM
13 | CC(C)NC(=O)c1ncoc1C(=O)Nc1ccc(NC(=O)c2ccc(F)cc2Cl)cc1 [Example 15, N^5-{4-[(2-chloro-4-fluorobenzoyl)amino]phenyl}-N^4-isopropyl-1,3-oxazole-4,5-dicarboxamide] | 1100 nM | 1140 nM |  | ≥ 50000 nM
14 | CNC(=O)c1nc[nH]c1C(=O)Nc1ccc(NC(=O)c2ccc(F)cc2Cl)nc1 [Example 16, N^5-{6-[(2-chloro-4-fluorobenzoyl)amino]pyridin-3-yl}-N^4-methyl-1H-imidazole-4,5-dicarboxamide] | 40 nM | 40 nM |  | ≥ 50000 nM
15 | CNC(=O)c1nc[nH]c1C(=O)Nc1ccc(NC(=O)c2c(-c3ccccc3)nn(C)c2Cl)cc1 [Example 17, N^5-(4-{[(5-chloro-1-methyl-3-phenyl-1H-pyrazol-4-yl)carbonyl]amino}phenyl)-N^4-methyl-1H-imidazole-4,5-dicarboxamide] | 2200 nM | 2200 nM | 26000 nM | 26000 nM
16 | O=C(Nc1ccc(NC(=O)c2[nH]cnc2C(=O)NCc2ccccc2)cc1)c1ccc(F)cc1Cl [Example 18, N^4-benzyl-N^5-{4-[(2-chloro-4-fluorobenzoyl)amino]phenyl}-1H-imidazole-4,5-dicarboxamide] | 850 nM | 850 nM |  | ≥ 50000 nM
17 | CNC(=O)c1nc[nH]c1C(=O)Nc1ccc(NC(=O)c2ccccc2C)cc1 [Example 19, N^4-methyl-N^5-{4-[(2-methylbenzoyl)amino]phenyl}-1H-imidazole-4,5-dicarboxamide] | 290 nM | 290 nM | 26500 nM | 11000 nM
18 | CNC(=O)c1nc[nH]c1C(=O)Nc1ccc(NC(=O)c2ccc(F)cc2)cc1 [Example 20, N^5-{4-[(4-fluorobenzoyl)amino]phenyl}-N^4-methyl-1H-imidazole-4,5-dicarboxamide] | 1700 nM | 1700 nM | 40500 nM | 31000 nM
19 | CNC(=O)c1nc[nH]c1C(=O)Nc1ccc(NC(=O)c2c(C)cc(F)cc2C)cc1 [Example 23, N^5-{4-[(4-fluoro-2,6-dimethylbenzoyl)amino]phenyl}-N^4-methyl-1H-imidazole-4,5-dicarboxamide] | 340 nM | 340 nM |  | ≥ 50000 nM
20 | CN(C)C(=O)c1nc[nH]c1C(=O)Nc1ccc(NC(=O)c2ccc(F)cc2Cl)cc1 [Example 24, N^5-{4-[(2-chloro-4-fluorobenzoyl)amino]phenyl}-N^4,N^4-dimethyl-1H-imidazole-4,5-dicarboxamide] | 500 nM | 500 nM |  | ≥ 50000 nM
21 | CNC(=O)c1nc[nH]c1C(=O)Nc1ccc(NC(=O)c2ccc(OCCN(C)C)cc2Cl)cc1 [Example 25, N^5-[4-({2-chloro-4-[2-(dimethylamino)ethoxy]benzoyl}amino)phenyl]-N^4-methyl-1H-imidazole-4,5-dicarboxamide] | 60 nM | 60 nM | 34000 nM | 34000 nM
